# Reference: the METLIN SMRT retention time set (Domingo-Almenara et al. 2019)
# Experiment: gradient 5% acetonitrile 3 min, to 50% in 2 min, to 85% in 15 min, held 3 min, 100 µL/min
# Details: column: Zorbax Extend-C18 2.1 x 50 mm; eluents: water / acetonitrile, 0.1% formic acid
# Procedure, shortened: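 Retention times come from adduct peaks that were picked computationally and then checked by hand. The standards, pure and pooled in mixtures of ~100 molecules, were run on a Zorbax Extend-C18 column (2.1 × 50 mm, 1.8 μm) at 100 μL/min with water and acetonitrile, each with 0.1% formic acid. Detection was by quadrupole time-of-flight mass spectrometry in positive and negative ionization mode, with a dead volume of 40 μL and a dwell volume of 900 μL.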
row,SMILES,RP-LC retention time [s]
1,CCn1cc(S(=O)(=O)N2CC(n3cc(C(=O)N4CCOCC4)nn3)C2)cn1,632
2,CC(=O)N1CCCc2cc(S(=O)(=O)N3CCC(C(=O)NCC4CCCO4)CC3)ccc21 (configuration not stated),658
3,Cc1ccc(-c2nnc(-c3nn(C)c4c3CN(S(=O)(=O)c3ccc5c(c3)OCCO5)CC4)o2)cc1,975
4,c1ccc(-c2nc3cnc(N4CCN(c5ccccc5)CC4)nc3o2)cc1,1340
5,O=C(CN1C(=O)CCC1=O)Nc1nnc(-c2ccc(C(F)(F)F)cc2)o1,674
6,CCn1ccc(C(=O)N2CCn3c(nnc3-c3ccccc3)C2)n1,604
7,O=C(COc1ccccc1)N1CCN(Cc2ccccc2)c2ncccc21,884
8,CCOC(=O)N1CCc2c(sc(NC(=O)c3cn(C)nc3OC)c2C#N)C1,776
9,CCOC(=O)CCC(=O)N(Cc1ccsc1)CC(F)(F)F,839
10,N#Cc1ccc(N2C=C(C(=O)N3CCCC3)S(=O)(=O)c3ccc(Cl)cc32)cc1,799
11,O=C1CC(c2nc(-c3ccccn3)no2)CN1c1ccc2c(c1)OCCO2 (configuration not stated),715
12,Cn1c(=O)c2c(nc(N3CCOCC3)n2C)n(C)c1=O,663
13,COc1ccc(-c2cn3c(CC(=O)Nc4ccc(F)c(Cl)c4)csc3n2)cc1,832
14,O=C(Cn1cccc1-c1nnc(C2CCC2)o1)Nc1ccc(Cl)cc1,968
15,Cc1nnc(NC(=O)Cn2cnc(-c3cccs3)cc2=O)s1,630
16,CCn1cc(C(=O)O)c(=O)c2ccc(Cc3ccccc3)nc21,1010
17,O=C(c1ccc2c(c1)OCO2)N1CCN(c2cc(-c3ccc(F)cc3)[nH]n2)CC1,772
18,O=C(NCCc1csc(C2CCN(C(=O)C3CCCCC3)CC2)n1)C1CCC1,720
19,COC(=O)c1ncn2c1C(=O)N(Cc1ccccc1F)C(C)(C(=O)NC1CCCCCC1)C2 (configuration not stated),816

row,SMILES,RP-LC retention time [s]
1,O=C1NC(C(=O)NCc2cccs2)Cn2cccc21 (configuration not stated),620
2,CN(C)CCNC(=O)c1ccc(CS(=O)c2ccc(Br)cc2)o1 (configuration not stated),590
3,CCNc1cc(N2CCC(CCC(=O)NCc3ccc(F)cc3)CC2)ncn1,574
4,O=C(N1CCC(NS(=O)(=O)Cc2ccccc2F)CC1)N1C[C@H]2C[C@H](C1)[C@H]1CCCC(=O)N1C2,689
5,CC(C)C(NC(=O)Cc1ccccc1Cl)C(=O)Nc1nc2ccccc2[nH]1 (configuration not stated),731
6,CCC1(O)CCC12CCN(C(=O)CC1CCCC1)CC2 (configuration not stated),830
7,Cc1nn(-c2ccc(Cl)cc2)c(C)c1S(=O)(=O)N1CCC(C(=O)NCC2CCCO2)CC1 (configuration not stated),843
8,CCc1c(C(=O)O)nnn1-c1ccc(C)c(C)c1,783
9,Cc1oc(-c2ccc(C(=O)NCCCN3CCCC3=O)cc2)nc1CN1CCc2ccccc21,853
10,Cc1noc(-c2ccnc(-n3cnc(C(=O)N(C)C4CCCCC4)c3)c2)n1,737
11,CC1Oc2ccc(-c3csc(NC(=O)c4cccs4)n3)cc2NC1=O (configuration not stated),839
12,CC(=O)N1CCc2ccc(NC(=O)Cc3ccc(-c4ccccc4)cc3)cc2C1,800
13,Cc1ccc(CN2N=C(C(=O)N3CCOCC3)S(=O)(=O)c3ccc(Cl)cc32)cc1,896
14,COc1cccc(NC(=O)Nc2cccc(-c3ccc(N4CCOCC4)nn3)c2)c1,672
15,O=C(Cn1cnc(-c2cccs2)cc1=O)Nc1ccc(-n2cnnn2)cc1,660
16,CCNC(=O)C1CCCN(c2nc3ncn(CC(=O)Nc4ccc(F)cc4)c(=O)c3s2)C1 (configuration not stated),657
17,CCCNC(=O)c1cc(C)nc2c(C)cc(C)cc12,650
18,O=C(Cn1nc2nc(Nc3ccc(F)cc3)ccn2c1=O)N1CCCC1,621
19,COc1cc(F)ccc1-c1ccnc2nc(CCc3ccccc3)nn12,951

# Further lines, results first:
row,RP-LC retention time [s],SMILES
1,536,c1cc(CSc2cc(N3CCCC3)ncn2)ccn1
2,850,O=C(Cn1c(=O)c2cccn2c2ccc(F)cc21)NC1CCCCC1
3,1100,O=C(c1cccc2[nH]ccc12)N1CC(Oc2ccc(-c3nc(-c4ccccc4)no3)cc2)C1
4,585,c1cncc(-c2noc(COC3CCCN(C4CCCC4)C3)n2)c1 (configuration not stated)
5,683,O=C(Nc1ccc(OCC(F)(F)C(F)F)cc1)c1ccncc1
6,633,COc1ccc(C2CC(=O)c3cnc(N4CCN(c5ccccn5)CC4)nc3C2)cc1OC (configuration not stated)
7,878,CCCSCCCNC(=O)c1cc2n(n1)CCCN(Cc1ccccc1)C2=O
8,715,CCCNC(=O)C1CCN(c2ccc(SCC(=O)Nc3ccc(C)c(Cl)c3)nn2)CC1
9,581,Cc1cc(N2CCN(C)CC2)nc2ccc(NC(=O)CCC(=O)NCCc3ccc(Cl)cc3)cc12
10,670,COCCN1C(=O)c2ccccc2C(C(=O)NCCCN2CC(C)CC(C)C2)C1c1cccs1 (configuration not stated)
11,812,CCC1Oc2ccc(S(=O)(=O)N3CCC(C(=O)Nc4ccccc4F)CC3)cc2NC1=O (configuration not stated)
12,1060,COc1ccc(CCC(=O)N2CCc3cc(-c4csc(C)n4)ccc32)cc1
13,606,CCOC(=O)N1CCN(C(=O)C2CCCN(c3ccc(-c4ccco4)nn3)C2)CC1 (configuration not stated)
14,721,CCCN1C(=O)Cc2ccccc2C1C(=O)NCc1ccco1 (configuration not stated)
15,828,CCCSCCCNC(=O)Cn1c(=O)c(C)nc2cc(C)c(C)cc21
16,972,Cc1ccc(CNC(=O)NCc2c(C)nn(-c3ccccc3)c2-n2cccc2)cc1
17,653,CCCNC(=O)C1CCN(c2ccc(SCC(=O)Nc3cc(OC)cc(OC)c3)nn2)CC1
18,768,CCCNC(=O)c1cn(-c2ncccc2-c2nc(C(C)(C)C)no2)cn1
19,981,O=C(c1ccc(Cl)cc1)N1CCc2cc(CNS(=O)(=O)Cc3ccccc3)ccc21
20,939,Cc1nc(-c2csc(S(=O)(=O)N3CCCC(C(=O)N(C)Cc4ccccc4)C3)c2)no1 (configuration not stated)
21,847,CCCn1nc(CNC(=O)Cc2ccsc2)c2ccccc21
22,585,Cc1cnc(CC2CCN(C(=O)C3CCC3)C2)n1C(C)C (configuration not stated)
23,1000,Cc1cccc(C(=O)Nc2cc(-c3cccs3)no2)c1
24,595,O=C(c1ccco1)N1CCC(OC2CCN(Cc3ccccc3)CC2)CC1
25,732,Cn1cc(S(=O)(=O)N2CCC(C(=O)N3CCCCCC3)CC2)cc1C(=O)N1CCCC1
26,641,Cc1nn(C)cc1S(=O)(=O)Nc1ccc2c(c1)OCCO2
27,815,O=C(Cn1c(=O)c2cc(C3CC3)nn2c2ncccc21)Nc1cc(F)cc(F)c1
28,602,Cc1nn2c(NCc3ccccn3)c3c(nc2c1-c1ccccc1)CCCC3
29,810,O=C(NCCC1=CCCCC1)c1cccn1-c1cccnc1
